Data as given in US11891634B2, “PDE5A destabilizing domains” (The Board of Trustees of the Leland Stanford Junior …, priority 2017, dated 2024).

Legend:
Format in all cases: cell-based, human
[1] = system: HCT 116 cells transduced with the PDE5A DD derived GFP constructs; experiment: Response to Tadalafil, GFP expression by FACS in HCT116; details: 48 hours, HCT116
Description: (§1) PDE5AN (#3) was cloned as AcGFP fusion into pELNS vector carrying mCherry marker and packaged in lentiviral vectors. HCT116 cells were transduced with the construct and stable integrants were selected by cell sorting using mCherry marker. Cells were treated with vehicle (dimethyl sulfoxide, DMSO) or varying doses of Tadalafil (TDF) for 48 hrs with doses ranging from 0.01 μM to 100 μM. Following the treatment, cells were analyzed for GFP expression using FACS. Basal expression was calculated as the ratio of GFP signal in the absence of ligand for a given cell line to auto fluorescence of parental HCT-116 cells. Stabilization ratio was calculated as the ratio of the GFP signal observed in the presence of stabilizing ligand to the signal from the same cell line in the absence of ligand.
HCT 116 cells transduced with the PDE5A DD derived GFP constructs were also tested with increasing doses of Tadalafil. The HCT116 cells were incubated for 48 hours with Tadalafil starting at dose 0.01 μM to 100 μM. The GFP intensity of the Tadalafil treated samples was compared to the parental untransduced HCT116 and DMSO treated cells for each construct. The mean fluorescence intensity was calculated for each sample and used to calculate the stabilization ratios as well as the basal expression for each construct. The stabilization ratios are shown in Table 19 and Table 20 and the basal expression is show in Table 21.

[2] = system: HCT116 cells transduced with the constructs; experiment: Response to Sildenafil, GFP expression by flow cytometry in HCT116; details: for MFI / Stabilization ratio with Sildenafil: 48 hours, HCT116
Description: Similar experiments were performed in HCT116 cells using sildenafil. The above-mentioned DDs were cloned as AcGFP fusion into pELNS vector carrying mCherry marker and packaged in lentiviral vectors. HCT116 cells were transduced with the constructs and stable integrants were selected by cell sorting using mCherry marker. Cells were treated with sildenafil at the following μM concentrations: 0.01, 0.02, 0.05, 0.14, 0.41, 1.23, 3.7, 11.11, 33.33, and 100 for a duration of 48 hours. The fluorescence was analyzed by flow cytometry and the mean fluorescence intensity was calculated for all samples. […] The stabilization ratios are shown in Table 24 and Table 25 and the basal expression is show in Table 26.

[3] = system: HCT 116 cells transduced with the PDE5A DD derived GFP constructs; experiment: Response to Vardenafil, GFP expression by FACS in HCT116
Description: as §1, with “Mutations were created in PDE5A (535-860) catalytic domain using site directed mutagenesis and the mutants were” for “PDE5AN (#3) was”, “constructs” for “construct”, “10 μM Vardenafil (VDF)” for “varying doses of Tadalafil (TDF)”, “hours.” for “hrs with doses ranging from 0.01 μM to 100 μM.”
HCT 116 cells transduced with the PDE5A DD derived GFP constructs were also tested with increasing doses of Vardenafil. The HCT116 cells were incubated for 48 hours with Vardenafil starting at a dose of 0.002 μM to 30 μM. The GFP intensity of the Vardenafil treated samples was compared to the parental untransduced HCT116 and DMSO treated cells for each construct. The mean fluorescence intensity was calculated for each sample and used to calculate the stabilization ratios as well as the basal expression for each construct. The GFP expression was measured using flow cytometry and the mean fluorescence intensity (MFI) was calculated for each sample. The stabilization ratios are shown in Table 13 and Table 14 and the basal expression is show in Table 15.

[4] = DMSO (no Vardenafil), 48 hours, HCT116
[5] = Vardenafil 0.002 μM vs DMSO, 48 hours, HCT116
[6] = Vardenafil 0.002 μM, 48 hours, HCT116
[7] = Vardenafil 0.005 μM, 48 hours, HCT116
[8] = Vardenafil 0.014 μM vs DMSO, 48 hours, HCT116
[9] = Vardenafil 0.014 μM, 48 hours, HCT116
[10] = Vardenafil 0.041 μM vs DMSO, 48 hours, HCT116
[11] = Vardenafil 0.041 μM, 48 hours, HCT116
[12] = Vardenafil 0.123 μM vs DMSO, 48 hours, HCT116
[13] = Vardenafil 0.123 μM, 48 hours, HCT116
[14] = Vardenafil 0.370 μM vs DMSO, 48 hours, HCT116
[15] = Vardenafil 0.370 μM, 48 hours, HCT116
[16] = Vardenafil 1.111 μM vs DMSO, 48 hours, HCT116
[17] = Vardenafil 1.111 μM, 48 hours, HCT116
[18] = Vardenafil 3.333 μM vs DMSO, 48 hours, HCT116
[19] = Vardenafil 3.333 μM, 48 hours, HCT116
[20] = Vardenafil 10 μM vs DMSO, 48 hours, HCT116
[21] = Vardenafil 10 μM, 48 hours, HCT116
[22] = Vardenafil 30 μM, 48 hours, HCT116

PDE5AC (#69): AcGFP fused to C-terminal DD 535-860 of PDE5A (Q589R, N636S, D687A, D764N, S815C), SEQ ID NO. 30
MFI ([1]; DMSO (no Tadalafil)): 8822 | Stabilization ratio with Tadalafil ([1]; Tadalafil 0.01 μM vs DMSO): 1.1 | MFI ([1]; Tadalafil 0.01 μM): 9337 | Stabilization ratio with Tadalafil ([1]; Tadalafil 0.02 μM vs DMSO): 1.2 | MFI ([1]; Tadalafil 0.02 μM): 10353 | Stabilization ratio with Tadalafil ([1]; Tadalafil 0.05 μM vs DMSO): 1.4 | MFI ([1]; Tadalafil 0.05 μM): 12365 | MFI ([1]; Tadalafil 0.14 μM): 19039 | Stabilization ratio with Tadalafil ([1]; Tadalafil 0.41 μM vs DMSO): 3.7 | MFI ([1]; Tadalafil 0.41 μM): 32821 | Stabilization ratio with Tadalafil ([1]; Tadalafil 1.23 μM vs DMSO): 5.9 | MFI ([1]; Tadalafil 1.23 μM): 52033 | Stabilization ratio with Tadalafil ([1]; Tadalafil 3.7 μM vs DMSO): 7.1 | MFI ([1]; Tadalafil 3.7 μM): 62558 | Stabilization ratio with Tadalafil ([1]; Tadalafil 11.11 μM vs DMSO): 7.9 | MFI ([1]; Tadalafil 11.11 μM): 69440 | Stabilization ratio with Tadalafil ([1]; Tadalafil 33.33 μM vs DMSO): 7.7 | MFI ([1]; Tadalafil 33.33 μM): 68289 | MFI ([1]; Tadalafil 100 μM): 67259 | MFI ([2]; DMSO (no Sildenafil)): 9575 | Stabilization ratio with Sildenafil ([2]; Sildenafil 0.01 μM vs DMSO): 1.0 | MFI ([2]; Sildenafil 0.01 μM): 9574 | Stabilization ratio with Sildenafil ([2]; Sildenafil 0.02 μM vs DMSO): 1.2 | MFI ([2]; Sildenafil 0.02 μM): 11755 | Stabilization ratio with Sildenafil ([2]; Sildenafil 0.05 μM vs DMSO): 1.2 | MFI ([2]; Sildenafil 0.05 μM): 11944 | MFI ([2]; Sildenafil 0.14 μM): 19733 | Stabilization ratio with Sildenafil ([2]; Sildenafil 0.41 μM vs DMSO): 3.1 | MFI ([2]; Sildenafil 0.41 μM): 30090 | Stabilization ratio with Sildenafil ([2]; Sildenafil 1.23 μM vs DMSO): 4.6 | MFI ([2]; Sildenafil 1.23 μM): 44180 | Stabilization ratio with Sildenafil ([2]; Sildenafil 3.70 μM vs DMSO): 5.5 | MFI ([2]; Sildenafil 3.70 μM): 52782 | Stabilization ratio with Sildenafil ([2]; Sildenafil 11.11 μM vs DMSO): 6.2 | MFI ([2]; Sildenafil 11.11 μM): 59723 | Stabilization ratio with Sildenafil ([2]; Sildenafil 33.33 μM vs DMSO): 6.8 | MFI ([2]; Sildenafil 33.33 μM): 65183 | Stabilization ratio with Sildenafil ([2]; Sildenafil 100.00 μM vs DMSO): 5.4 | MFI ([2]; Sildenafil 100.00 μM): 51774 | MFI [3, 4]: 9466 | Basal ([3]; Table 15, MFI with DMSO / parental HCT116, Vardenafil experiment): 4.84 | Stabilization ratio with Vardenafil [3, 5]: 1.1 | MFI [3, 6]: 10817 | MFI [3, 7]: 13682 | Stabilization ratio with Vardenafil [3, 8]: 2.9 | MFI [3, 9]: 27457 | Stabilization ratio with Vardenafil [3, 10]: 3.4 | MFI [3, 11]: 32264 | Stabilization ratio with Vardenafil [3, 12]: 5.3 | MFI [3, 13]: 49884 | Stabilization ratio with Vardenafil [3, 14]: 7.9 | MFI [3, 15]: 74730 | Stabilization ratio with Vardenafil [3, 16]: 6.6 | MFI [3, 17]: 62065 | Stabilization ratio with Vardenafil [3, 18]: 7.0 | MFI [3, 19]: 66625 | Stabilization ratio with Vardenafil [3, 20]: 6.8 | MFI [3, 21]: 64380 | Stabilization ratio with Vardenafil ([3]; Vardenafil 30 μM vs DMSO, 48 hours, HCT116): 2.4 | MFI [3, 22]: 22775

PDE5AN (#3): N-terminal DD 535-860 of PDE5A (Q589R, K633E, T712S, K852E, K795E), SEQ ID NO. 66, fused to AcGFP
MFI ([1]; DMSO (no Tadalafil)): 6944 | expression of GFP (MFI) with increasing doses of Tadalafil ([1]; Tadalafil 0.01 μM to 100 μM): Tadalafil dose dependent increase in the MFI | Stabilization ratio with Tadalafil ([1]; Tadalafil 0.01 μM vs DMSO): 1.0 | MFI ([1]; Tadalafil 0.01 μM): 6781 | Stabilization ratio with Tadalafil ([1]; Tadalafil 0.02 μM vs DMSO): 1.0 | MFI ([1]; Tadalafil 0.02 μM): 6685 | Stabilization ratio with Tadalafil ([1]; Tadalafil 0.05 μM vs DMSO): 1.0 | MFI ([1]; Tadalafil 0.05 μM): 7013 | Stabilization ratio with Tadalafil ([1]; Tadalafil 0.14 μM vs DMSO): 1.0 | MFI ([1]; Tadalafil 0.14 μM): 6988 | Stabilization ratio with Tadalafil ([1]; Tadalafil 0.41 μM vs DMSO): 1.1 | MFI ([1]; Tadalafil 0.41 μM): 7648 | Stabilization ratio with Tadalafil ([1]; Tadalafil 1.23 μM vs DMSO): 1.3 | MFI ([1]; Tadalafil 1.23 μM): 8973 | Stabilization ratio with Tadalafil ([1]; Tadalafil 3.7 μM vs DMSO): 2.0 | MFI ([1]; Tadalafil 3.7 μM): 14097 | Stabilization ratio with Tadalafil ([1]; Tadalafil 11.11 μM vs DMSO): 3.8 | MFI ([1]; Tadalafil 11.11 μM): 26560 | Stabilization ratio with Tadalafil ([1]; Tadalafil 33.33 μM vs DMSO): 7.2 | MFI ([1]; Tadalafil 33.33 μM): 49889 | Stabilization ratio with Tadalafil ([1]; Tadalafil 100 μM vs DMSO): 9.9 | MFI ([1]; Tadalafil 100 μM): 68532 | MFI ([2]; DMSO (no Sildenafil)): 9835 | Stabilization ratio with Sildenafil ([2]; Sildenafil 0.01 μM vs DMSO): 1.0 | MFI ([2]; Sildenafil 0.01 μM): 9888 | Stabilization ratio with Sildenafil ([2]; Sildenafil 0.02 μM vs DMSO): 1.0 | MFI ([2]; Sildenafil 0.02 μM): 10157 | Stabilization ratio with Sildenafil ([2]; Sildenafil 0.05 μM vs DMSO): 1.0 | MFI ([2]; Sildenafil 0.05 μM): 9952 | Stabilization ratio with Sildenafil ([2]; Sildenafil 0.14 μM vs DMSO): 1.1 | MFI ([2]; Sildenafil 0.14 μM): 10475 | Stabilization ratio with Sildenafil ([2]; Sildenafil 0.41 μM vs DMSO): 1.3 | MFI ([2]; Sildenafil 0.41 μM): 12302 | Stabilization ratio with Sildenafil ([2]; Sildenafil 1.23 μM vs DMSO): 1.7 | MFI ([2]; Sildenafil 1.23 μM): 16826 | Stabilization ratio with Sildenafil ([2]; Sildenafil 3.70 μM vs DMSO): 2.8 | MFI ([2]; Sildenafil 3.70 μM): 27542 | Stabilization ratio with Sildenafil ([2]; Sildenafil 11.11 μM vs DMSO): 5.4 | MFI ([2]; Sildenafil 11.11 μM): 52641 | Stabilization ratio with Sildenafil ([2]; Sildenafil 33.33 μM vs DMSO): 8.7 | MFI ([2]; Sildenafil 33.33 μM): 85509 | MFI ([2]; Sildenafil 100.00 μM): 103938 | Basal expression ([2]; Table 26, MFI with DMSO / parental HCT116, Sildenafil experiment): 7.6 | MFI [3, 4]: 8934 | Stabilization ratio ([3]; Table 10, 10 μM Vardenafil vs DMSO, 48 hours, HCT116): stabilization ratios similar to those observed for sildenafil | Stabilization ratio with Vardenafil [3, 5]: 1.0 | MFI [3, 6]: 8767 | MFI [3, 7]: 9620 | Stabilization ratio with Vardenafil [3, 8]: 1.2 | MFI [3, 9]: 10487 | Stabilization ratio with Vardenafil [3, 10]: 1.6 | MFI [3, 11]: 14086 | Stabilization ratio with Vardenafil [3, 12]: 2.3 | MFI [3, 13]: 20568 | Stabilization ratio with Vardenafil [3, 14]: 4.1 | MFI [3, 15]: 36786 | Stabilization ratio with Vardenafil [3, 16]: 7.4 | MFI [3, 17]: 66543 | Stabilization ratio with Vardenafil [3, 18]: 11.1 | MFI [3, 19]: 98986 | Stabilization ratio with Vardenafil [3, 20]: 13.4 | MFI [3, 21]: 119591 | MFI [3, 22]: 131667
